Measurements reported in patent publication US20100093811A1 (priority 2007, published 2010).
Where a name gives a salt, the structure may show the parent alone. Read-outs that look alike come from different tables or passages of the source.

Columns and labels:
[1] = system: acute HIV infection of T-lymphoid cells; test: Assay for inhibition of HIV replication (spread assay); type: cell-based, HIV-1; settings: Human immunodeficiency virus 1, T-lymphoid; read-out: Spread - IC95
Procedure: • Assay for Inhibition of HIV Replication
Assays for the inhibition of acute HIV infection of T-lymphoid cells were conducted in accordance with Vacca, J. P. et al., Proc. Natl. Acad. Sci. USA 1994, 91: 4096.

wild-type HIV-1 protease = wild-type HIV-1 protease (Human immunodeficiency virus type 1 group M subtype B, UniProt P04585); test: Assay for inhibition of microbial expressed HIV protease; type: biochemical
Summary of the method: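 E. coli-expressed protease (5 pM) preincubated with inhibitor 30 min at room temperature in 50 mM sodium acetate pH 5.5, 100 mM NaCl, 0.1% BSA. Substrate Val-Ser-Gln-Asn-(betanapthyl)Ala-Pro-Ile-Val at 440 micromolar, 1 h at 30° C; acid-quenched, product peak area by C18 HPLC gives inhibition.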

[2] = wild-type HIV-1 protease expressed in E. coli, peptide substrate, pH 5.5, read-out: Enzyme Inhibition - IC50

Row | Structure (SMILES) | IC95 [1] [nM] | IC50 (wild-type HIV-1 protease; [2]) [nM] | IC50 (wild-type HIV-1 protease) [nM]
1 | CC[C@@H](CCC[C@@H](CO)N(CCC(C)C)S(=O)(=O)c1ccc(CO)cc1)NC(=O)[C@@H](NC)C(c1ccccc1)c1ccccc1 [Example J27, N-{(1S,5S)-1-ethyl-6-hydroxy-5-[{[4-(hydroxymethyl)phenyl]sulfonyl}(3-methylbutyl)amino]hexyl}-Nα-methyl-β-phenyl-L-phenylalaninamide] | 6 | 0.025 | –
2 | CN[C@H](C(=O)N[C@H](CCC[C@@H](CO)N(CCC(C)C)S(=O)(=O)c1ccc(CO)cc1)C1CC1)C(c1ccccc1)c1ccccc1 [Example J28, N-{(1R,5S)-1-cyclopropyl-6-hydroxy-5-[{[4-(hydroxymethyl)phenyl]sulfonyl}(3-methylbutyl)amino]hexyl}-Nα-methyl-β-phenyl-L-phenylalaninamide] | 8 | 0.01 | –
3 | CN[C@H](C(=O)N[C@H](CCC[C@@H](CO)N(CCC(C)C)S(=O)(=O)c1ccc(CO)cc1)C(C)C)C(c1ccccc1)c1ccccc1 [Example J29, N-{(1R,5S)-6-hydroxy-5-[{[4-(hydroxymethyl)phenyl]sulfonyl}(3-methylbutyl)amino]-1-isopropylhexyl}-Nα-methyl-β-phenyl-L-phenylalaninamide] | 16 | 0.039 | –
4 | COC(=O)N[C@H](C(=O)N[C@H](CCC[C@@H](CO)N(CC(C)C)S(=O)(=O)c1ccc(CO)cc1)C(F)(F)F)C(c1ccccc1)c1ccccc1 [Example J30, N-[(1R,5S)-6-hydroxy-5-[{[4-(hydroxymethyl)phenyl]sulfonyl}(isobutyl)amino]-1-(trifluoromethyl)hexyl]-Nα-(methoxycarbonyl)-β-phenyl-L-phenylalaninamide] | 21 | 0.01 | –
5 | CC[C@@H](CCC[C@@H](CO)N(CCC(C)C)S(=O)(=O)c1ccc(CO)cc1)NC(=O)[C@@H](N)C(c1ccccc1)c1ccccc1 [Example J31, N-{(1S,5S)-1-ethyl-6-hydroxy-5-[{[4-(hydroxymethyl)phenyl]sulfonyl}(3-methylbutyl)amino]hexyl}-β-phenyl-L-phenylalaninamide hydrochloride] | 23 | – | 0.01
6 | CC[C@@H](CCC[C@@H](CO)N(CC(C)C)S(=O)(=O)c1ccc(CO)cc1)NC(=O)[C@@H](N)C(c1ccccc1)c1ccccc1 [Example J32, N-{(1S,5S)-1-ethyl-6-hydroxy-5-[{[4-(hydroxymethyl)phenyl]sulfonyl}(isobutyl)amino]hexyl}-β-phenyl-L-phenylalaninamide hydrochloride] | 25 | – | 0.01
7 | CCCN([C@H](CO)CCC[C@H](CC)NC(=O)[C@@H](NC(=O)OC)C(c1ccccc1)c1ccccc1)S(=O)(=O)c1ccc(CO)cc1 [Example J34, N-{(1S,5S)-1-ethyl-6-hydroxy-5-[{[4-(hydroxymethyl)phenyl]sulfonyl}(propyl)amino]hexyl}-Nα-(methoxycarbonyl)-β-phenyl-L-phenylalaninamide] | 20 | 0.041 | –
8 | CC[C@@H](CCC[C@@H](CO)N(C(C)C)S(=O)(=O)c1ccc(CO)cc1)NC(=O)[C@@H](NC)C(c1ccccc1)c1ccccc1 [Example J35, N-{(1S,5S)-1-ethyl-6-hydroxy-5-[{[4-(hydroxymethyl)phenyl]sulfonyl}(isopropyl)amino]hexyl}-Nα-methyl-β-phenyl-L-phenylalaninamide hydrochloride] | 25 | – | 0.569
9 | CC[C@@H](CCC[C@@H](CO)N(C(C)C)S(=O)(=O)c1ccc(CO)cc1)NC(=O)[C@@H](N)C(c1ccccc1)c1ccccc1 [Example J36, N-{(1S,5S)-1-ethyl-6-hydroxy-5-[{[4-(hydroxymethyl)phenyl]sulfonyl}(isopropyl)amino]hexyl}-β-phenyl-L-phenylalaninamide] | 27 | 0.098 | –
10 | COC(=O)N[C@@H](Cc1ccccc1Br)C(=O)N[C@H](CCC[C@@H](CO)N(C(C)C)S(=O)(=O)c1ccc(CO)cc1)C1CC1 [Example J37, 2-bromo-N-{(1R,5S)-1-cyclopropyl-6-hydroxy-5-[{[4-(hydroxymethyl)phenyl]sulfonyl}(isopropyl)amino]hexyl}-Nβ-(methoxycarbonyl)-L-phenylalaninamide] | 37 | 0.595 | –
11 | CCCN([C@H](CO)CCC[C@H](CC)NC(=O)[C@@H](NC)C(c1ccccc1)c1ccccc1)S(=O)(=O)c1ccc(CO)cc1 [Example J38, N-{(1S,5S)-1-ethyl-6-hydroxy-5-[{[4-(hydroxymethyl)phenyl]sulfonyl}(propyl)amino]hexyl}-Nα-methyl-β-phenyl-L-phenylalaninamide] | 34 | 0.098 | –
12 | CCCN([C@H](CO)CCC[C@H](CC)NC(=O)[C@@H](N)C(c1ccccc1)c1ccccc1)S(=O)(=O)c1ccc(CO)cc1 [Example J39, N-{(1S,5S)-1-ethyl-6-hydroxy-5-[{[4-(hydroxymethyl)phenyl]sulfonyl}(propyl)amino]hexyl}-β-phenyl-L-phenylalaninamide] | 39 | 0.016 | –
13 | COC(=O)N[C@H](C(=O)N[C@H](CCC[C@@H](CO)N(C(C)C)S(=O)(=O)c1ccc(CO)cc1)C(F)(F)F)C(c1ccccc1)c1ccccc1 [Example J40, N-[(1R,5S)-6-hydroxy-5-[{[4-(hydroxymethyl)phenyl]sulfonyl}(isopropyl)amino]-1-(trifluoromethyl)hexyl]-Nα-(methoxycarbonyl)-β-phenyl-L-phenylalaninamide] | 34 | 0.015 | –
14 | CCCN([C@H](CO)CCC[C@H](CC)NC(=O)[C@H](Cc1cccc2ccccc12)NC(=O)OC)S(=O)(=O)c1ccc(CO)cc1 [Example J41, methyl [(1S)-2-({(1S,5S)-1-ethyl-6-hydroxy-5-[{[4-(hydroxymethyl)phenyl]sulfonyl}(propyl)amino]hexyl}amino)-1-(1-naphthylmethyl)-2-oxoethyl]carbamate] | 54 | 0.564 | –
15 | CCCN([C@H](CO)CCC[C@@H](NC(=O)[C@H](Cc1ccccc1Cl)NC(=O)OC)C(F)(F)F)S(=O)(=O)c1ccc(CO)cc1 [Example J43, 2-chloro-N-[(1R,5S)-6-hydroxy-5-[{[4-(hydroxymethyl)phenyl]sulfonyl}(propyl)amino]-1-(trifluoromethyl)hexyl]-Nα-(methoxycarbonyl)-L-phenylalaninamide] | 116 | 0.126 | –
16 | CC[C@@H](CCC[C@@H](CO)N(CCC(C)C)S(=O)(=O)c1ccc(CO)cc1)NC(=O)[C@@H](NC(=O)OC)C(c1ccc(Cl)cc1)c1ccc(Cl)cc1 [Example J44, 4-chloro-β-(4-chlorophenyl)-N-{(1S,5S)-1-ethyl-6-hydroxy-5-[{[4-(hydroxymethyl)phenyl]sulfonyl}(3-methylbutyl)amino]hexyl}-Nα-(metboxycarbonyl)-L-phenylalaninamide] | 126 | 0.081 | –
17 | COC(=O)NC(Cc1cccc(Cl)c1Cl)C(=O)N[C@@H](C)CCC[C@@H](CO)N(C(C)C)S(=O)(=O)c1ccc(CO)cc1 (stereo partly drawn) [Example J45, 2,3-dichloro-N-{(1S,5S)-6-hydroxy-5-[{[4-(hydroxymethyl)phenyl]sulfonyl}(isopropyl)amino]-1-methylhexyl}-Nα-(methoxycarbonyl)phenylalaninamide] | 80 | 0.041 | –
